Experimental findings from ChEMBL document CHEMBL3352231, “Conformational analysis of an anti-androgenic, (E,E)-8-hydroxygermacrene B, using NOESY and dynamic NMR spectroscopy” (Bioorg Med Chem Lett, 2014) are described below.

SMILES strings stand for the structures.

In this assay the target is T1, 3-oxo-5-alpha-steroid 4-dehydrogenase 1 (Rattus norvegicus, UniProt P24008).
T1 sequence (P24008 whole entry): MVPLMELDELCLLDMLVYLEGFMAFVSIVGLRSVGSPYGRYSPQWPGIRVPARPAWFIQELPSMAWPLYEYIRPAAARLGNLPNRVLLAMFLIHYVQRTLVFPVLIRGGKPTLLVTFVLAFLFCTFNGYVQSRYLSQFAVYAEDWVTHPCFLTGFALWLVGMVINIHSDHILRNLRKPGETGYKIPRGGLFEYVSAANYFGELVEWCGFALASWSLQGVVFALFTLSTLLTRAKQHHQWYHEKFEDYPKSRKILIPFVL
In words: Inhibition of Sprague-Dawley rat liver steroid 5-alpha-reductase assessed as inhibition of testosterone conversion to dihydrotestosterone incubated for 30 mins by HPLC method.

What is called IC50 is the point on the concentration scale where inhibition reaches its midpoint. As to `CC(C)=C1C/C=C(/C)CC/C=C(/C)CC1=O`, the IC50 was 1940 µM.
For `C#C[C@]1(O)CC[C@H]2[C@@H]3CCc4cc(O)ccc4[C@H]3CC[C@@]21C` [ETHINYL ESTRADIOL] the value was 960 µM.
